Laboratory results reported in patent US11708562B2, “Differentiation of human embryonic stem cells” (Janssen Biotech, Inc., priority 2006, dated 2023).

Legend:
[1] = test system: human embryonic stem cell line H9; test: Formation of pancreatic endocrine cells: γ-secretase inhibitor L-685,458 (PCR); assay type: cell-based; settings: L-685,458 at 10 μM for three days
Experimental: After this time interval, the cells were then treated for six days with combinations of retinoic acid and FGF as outlined in Example 2, then the culture medium was removed and replaced with medium comprising DMEM/F12 with 2% FBS, containing the γ-secretase inhibitors L-685,458 at 10 μM for three days.

[2] = test system: H9P53 embryonic stem cells; test: Definitive endoderm on […]: combination of Wnt-3a, GSK-3B inhibitor, BMP-4; assay type: cell-based, human
From the text: Results are expressed as fold increase over untreated cells. […] Results are expressed as fold increase over untreated cells.

[3] = test system: human embryonic stem cell line H1 at passage 55; test: Definitive endoderm on human serum coated plates (real-time PCR); assay type: cell-based
Experimental: Cultures of the human embryonic stem cell line H1 at passage 55 were grown and differentiated on human serum (Sigma, # H1388, MO) coated plates. 0.5 ml of human serum was added to each well of 6 well tissue culture treated dish, incubated for 1 hr at room temperature, and aspirated before adding human embryonic stem cells. […] These findings parallel our findings for human embryonic stem cells cultured on […]™ or human fibronectin coated plates.

[4] = test system: H9P46-P48 embryonic stem cells; test: Definitive endoderm on […]: effect of GSK-3B inhibitor (FACS CXCR4, PCR); assay type: cell-based, human; settings: 20 ng/ml of Wnt-3a or 100-1000 nM GSK-3B inhibitor
Experimental: In order to confirm that the effect of Wnt-3a was through the Wnt pathway, a GSK-3 inhibitor was used to activate the downstream targets of Wnt, such as beta catenin. […] FIG. 29A depicts the expression of CXCR4 by FACS at day 5 in the absence of Wnt-3a or GSK-3B inhibitor, b)+20 ng/ml Wnt-3a, c)+1000 nM GSK-3B inhibitor IX, d)+500 nM GSK-3B inhibitor IX, e)+100 nM GSK-3B inhibitor IX, f)+10 nM GSK-3B inhibitor IX, g)+100 nM GSK-3B inhibitor IX for days 1-2, and h)+10 nM GSK-3B inhibitor IX for days 1-2.

[5] = test system: human embryonic stem cell line H9; test: Formation of pancreatic endoderm: retinoic acid and bFGF after activin A (PCR, immunocytochemistry); assay type: cell-based
From the text: Final data were expressed relative to a calibrator sample.

[6] = test system: human embryonic stem cell line H9; test: Derivation of hepatocytes from human embryonic stem cells (PCR of AFP, albumin); assay type: cell-based; settings: five days after 7 days activin A
From the text: After this time, the cells were harvested, and samples of mRNA were collected for analysis.

[7] = test system: H7P44 and H9P46 embryonic stem cells; test: Definitive endoderm on […]: role of Wnt ligands (FACS CXCR4, real-time PCR); assay type: cell-based, human; settings: H7 and H9; low serum+AA+/-Wnt ligands
Experimental: In some of the cultures 20 ng/ml Wnt-3a (Catalog #1324-WN-002, R&D Systems, MN), 20 ng/ml Wnt-5a (Catalog #654-WN-010, R&D Systems, MN), 25 ng/ml Wnt-7a (Catalog #3008-WN-025, R&D Systems, MN), or 25 ng/ml Wnt-5b (Catalog #3006-WN-025, R&D Systems, MN) was added throughout the five day treatment. FIGS. 24A and 24B depicts phase contrast images of H9P46 definitive endoderm culture in the presence of high concentration of (a) AA or (b) AA+20 ng/ml Wnt-3a. FIGS. 25A, 25B, 25C and 25D depicts the expression of CXCR4 by FACS at day 5 for H7P44, and H9P46 lines cultured on […]™ (1:30 dilution) and exposed to the DE protocol+Wnt-3a (FIGS. 25B and 25D) and -Wnt-3a (FIGS. 25A and C).

CC(C)C[C@H](NC(=O)[C@H](Cc1ccccc1)C[C@@H](O)[C@H](Cc1ccccc1)NC(=O)OC(C)(C)C)C(=O)N[C@@H](Cc1ccccc1)C(N)=O [L-685,458] was tested, and the “expression of Ngn3 relative to activin A alone or retinoic acid with FGFs” value [1] was “approximately 50 fold”.

With O=C1Nc2cc(Br)ccc2/C1=C1/Nc2ccccc2/C1=N\O [GSK-3B inhibitor IX, reference compound] the “definitive endoderm markers, combination versus each agent by itself” value ([2]; Wnt-3A plus GSK inhibitor in the presence of activin A) was “do not lead to significant upregulation”, the “expression of definitive endoderm markers compared to activin A only” value [3] was “Robust expression” and the “number of CXCR4 positive cells (FACS)” value [4] was “significantly increased”.

CC1=C(/C=C/C(C)=C/C=C/C(C)=C/C(=O)O)C(C)(C)CCC1 [retinoic acid, all-trans retinoic acid] was tested, and the “expression of GLUT-2 and PTF1a” value ([5]; 1 μM retinoic acid and 50 ng/ml bFGF, absence of activin A) was “largest increase” and the “Pdx1 expression relative to activin A treatment alone for 5 days” value ([5]; three days activin A, then 5 days retinoic acid and 50 ng/ml bFGF in the absence of activin A) was “approximately 3500 fold”.

B1: BMP-4: Catalog #314-BP-010, R&D Systems (protein, UniProt P12644 293-408, looked up)
Bone morphogenetic protein 4: SPKHHSQRARKKNKNCRRHSLYVDFSDVGWNDWIVAPPGYQAFYCHGDCPFPLADHLNSTNHAIVQTLVNSVNSSIPKACCVPTELSAISMLYLDEYDKVVLKNYQEMVVEGCGCR
For B1, the “effect of addition of BMP-4 to the DE protocol” value ([2]; 25 ng/ml BMP-4) was “induce formation of mesoderm marker BRY”.

B2: FGF-4: member of the fibroblast growth factor family (protein, UniProt P08620 31-206, looked up)
Fibroblast growth factor 4: APTAPNGTLEAELERRWESLVALSLARLPVAAQPKEAAVQSGAGDYLLGIKRLRRLYCNVGIGFHLQALPDGRIGGAHADTRDSLLELSPVERGVVSIFGVASRFFVAMSSKGKLYGSPFFTDECTFKEILLPNNYNAYESYKYPGMFIALSKNGKTKKGNRVSPTMKVTHFLPRL
With B2 the “expression of α-fetoprotein (AFP) and albumin” value [6] was “further increased”.

B3: Wnt-5a: Wnt ligand, Catalog #654-WN-010, R&D Systems (protein, UniProt P22725 62-380, looked up)
Protein Wnt-5a: IIGAQPLCSQLAGLSQGQKKLCHLYQDHMQYIGEGAKTGIKECQYQFRHRRWNCSTVDNTSVFGRVMQIGSRETAFTYAVSAAGVVNAMSRACREGELSTCGCSRAARPKDLPRDWLWGGCGDNIDYGYRFAKEFVDARERERIHAKGSYESARILMNLHNNEAGRRTVYNLADVACKCHGVSGSCSLKTCWLQLADFRKVGDALKEKYDSAAAMRLNSRGKLVQVNSRFNSPTTQDLVYIDPSPDYCVRNESTGSLGTQGRLCNKTSEGMDGCELMCCGRGYDQFKTVQTERCHCKFHWCCYVKCKKCTEIVDQFVCK
In the case of B3, the “expression of definitive endoderm markers (real-time PCR)” value (“expression … (real-time PCR)” below) [7] is reported as “minimal impact”.

B4: Wnt-7a: Wnt ligand, Catalog #3008-WN-025, R&D Systems (protein, UniProt O00755 32-349, looked up)
Protein Wnt-7a: LGASIICNKIPGLAPRQRAICQSRPDAIIVIGEGSQMGLDECQFQFRNGRWNCSALGERTVFGKELKVGSREAAFTYAIIAAGVAHAITAACTQGNLSDCGCDKEKQGQYHRDEGWKWGGCSADIRYGIGFAKVFVDAREIKQNARTLMNLHNNEAGRKILEENMKLECKCHGVSGSCTTKTCWTTLPQFRELGYVLKDKYNEAVHVEPVRASRNKRPTFLKIKKPLSYRKPMDTDLVYIEKSPNYCEEDPVTGSVGTQGRACNKTAPQASGCDLMCCGRGYNTHQYARVWQCNCKFHWCCYVKCNTCSERTEMYTCK
B4 was tested, and the “expression … (real-time PCR)” value [7] was “minimal impact”.

B5: Wnt-5b: Wnt ligand, Catalog #3006-WN-025, R&D Systems (protein, UniProt P22726 18-359, looked up)
Protein Wnt-5b: QLLTDANSWWSLALNPVQRPEMFIIGAQPVCSQLPGLSPGQRKLCQLYQEHMSYIGEGAKTGIRECQHQFRQRRWNCSTVDNTSVFGRVMQIGSRETAFTYAVSAAGVVNAISRACREGELSTCGCSRAARPKDLPRDWLWGGCGDNVEYGYRFAKEFVDAREREKNFAKGSEEQGRALMNLQNNEAGRRAVYKMADVACKCHGVSGSCSLKTCWLQLAEFRKVGDRLKEKYDSAAAMRITRQGKLELANSRFNQPTPEDLVYVDPSPDYCLRNETTGSLGTQGRLCNKTSEGMDGCELMCCGRGYDRFKSVQVERCHCRFHWCCFVRCKKCTEVVDQYVCK
B5 was tested, and the “expression … (real-time PCR)” value [7] was “minimal impact”.
